The values that follow come from ChEMBL document CHEMBL1201862, “PubChem BioAssay data set” (2004).

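A five-concentration, 48-hour dose response in 96-well plates underlies each endpoint, interpolated linearly between surrounding concentrations. GI50 = concentration required for 50% inhibition of growth.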 Active and inactive are the calls of the source. No stated cut-off is given here; in the data, active = GI50 up to about 1.1 µM and inactive = higher.

Common to all, as to test: NCI-60 cell line screen, 48 h
Assay [1] concerns UO-31.
Assay [2] relates to SNB-75.
Assay [3] deals with NCI/ADR-RES.
Assay [4] deals with RXF 393.
The subject of assay [5] is MDA-MB-435.
Assay [6] concerns CCRF-CEM.
Assay [7] concerns MOLT-4.
Assay [8] has as its system UACC-257.
Assay [9] concerns HCC 2998.
The subject of assay [10] is NCI-H522.
In assay [11] the test system is U-251.
Assay [12] concerns SK-MEL-2.
The test system of assay [13] is ACHN.
The subject of assay [14] is SF-539.
Assay [15] has as its system TK-10.
Assay [16] has as its system SNB-19.
The test system of assay [17] is OVCAR-5.
Assay [18] concerns A498.
Assay [19] has as its system Malme-3M.

Regarding `O=c1oc2ccccc2cc1-c1cn2c(n1)sc1ccccc12`, the GI50 in assay [1] is > 100 µM (inactive); in assay [2] it was > 100 µM (inactive); in assay [3], > 100 µM (inactive); in assay [4], > 100 µM (inactive); in assay [5], 29.3 µM (inactive); in [6] it was > 100 µM (inactive). In addition, the GI50 in assay [7] was > 100 µM (inactive); in [8] it was > 100 µM (inactive); in [9] it was > 100 µM (inactive); in assay [10] it was 26.1 µM (inactive); in [11] it was 83 µM (inactive); in assay [12], > 100 µM (inactive). In addition, the GI50 in assay [13], in assay [14] and in assay [15] was > 100 µM (inactive) in each case.
As to `O=C1CN(c2cccc(C(F)(F)F)c2)C(=O)CN1NCNN1CC(=O)N(c2cccc(C(F)(F)F)c2)CC1=O`, the GI50 in assay [1], in assay [16], in [2], in assay [3], in assay [5] and in [6] was > 100 µM (inactive) in each case. For the same compound, the GI50 in assay [7] was > 100 µM (inactive); in [8], > 100 µM (inactive); in assay [9] it was > 100 µM (inactive); in assay [10], 52.5 µM (inactive); in assay [17], > 100 µM (inactive); in [11], > 100 µM (inactive). Besides, the GI50 in assay [13], in assay [14] and in assay [15] was > 100 µM (inactive) throughout.
`CCSC12CC3c4cccc5c4C(CN5C(=O)c4ccccc4)CC3(O1)N(C)C2=O` (stereo not drawn): the GI50 in assay [1] was 47.3 µM (inactive); in assay [16] it was 87.3 µM (inactive); in assay [2] it was 73.6 µM (inactive); in assay [18] it was 32.1 µM (inactive); in assay [3] it was 29 µM (inactive); in assay [4] it was 71.1 µM (inactive). For the same compound, the GI50 in assay [5] is 34.8 µM (inactive); in assay [6], 28.6 µM (inactive); in assay [7], 22.2 µM (inactive); in assay [8] it was 29.4 µM (inactive); in assay [10], 25.1 µM (inactive); in [17] it was 83 µM (inactive). In addition, the GI50 in assay [11] is 38.5 µM (inactive); in [12] it was 40.3 µM (inactive); in assay [13], 33.6 µM (inactive); in [14] it was 26.9 µM (inactive); in [15], 48.5 µM (inactive); in [19] it was 35.6 µM (inactive).
On to `Cn1cc(C=C(C#N)C#N)c(=O)n(C)c1=O`, for which the GI50 in assay [1], in assay [16], in assay [2], in [18], in [3] and in assay [4] was > 100 µM (inactive) each time. Moreover, the GI50 in assay [5] was > 100 µM (inactive); in assay [7], 0.809 µM (active); in assay [8] it was > 100 µM (inactive); in [10] it was 37.6 µM (inactive); in assay [17], > 100 µM (inactive); in assay [11], > 100 µM (inactive). For the same compound, the GI50 in assay [12], in assay [13], in assay [14] and in assay [15] was > 100 µM (inactive) in each case.
With `S=C(N1CCN(c2ccc(Cl)c(Cl)c2)CC1)N1CCN(c2ccc(Cl)c(Cl)c2)CC1`, the GI50 is 13.1 µM (inactive) in [1]; 12.5 µM (inactive) in [16]; 16.3 µM (inactive) in [3]; 14.3 µM (inactive) in assay [4]; 15.4 µM (inactive) in [5]; 3.42 µM (inactive) in assay [6]. Also, the GI50 in assay [7] was 6.18 µM (inactive); in assay [8], 17.1 µM (inactive); in assay [9] it was 13.7 µM (inactive); in assay [10], 10.9 µM (inactive); in assay [17] it was 19.6 µM (inactive); in [11] it was 14.7 µM (inactive). Also, the GI50 was 19.9 µM (inactive) in assay [12], 14.4 µM (inactive) in assay [13], 13.4 µM (inactive) in assay [15] and 14.2 µM (inactive) in [19].
On to `Cc1ccc(-n2nnc3c(NNc4ccccc4)n[nH]c(=O)c32)cc1`, for which the GI50 in assay [16] was 59 µM (inactive); in assay [2], 36.6 µM (inactive); in [3], 76.7 µM (inactive); in [5], 74.6 µM (inactive); in assay [6], 92 µM (inactive); in assay [7] it was 44 µM (inactive). The GI50 is > 100 µM (inactive) in assay [8]; > 100 µM (inactive) in [9]; 30.2 µM (inactive) in [10]; > 100 µM (inactive) in [17]; 52.1 µM (inactive) in [11]; 67.5 µM (inactive) in [12]. The GI50 was > 100 µM (inactive) in [13], > 100 µM (inactive) in assay [14], 28.1 µM (inactive) in [15] and > 100 µM (inactive) in assay [19].
As to `NC(=O)c1cc2ccccc2c(/N=N/c2ccccc2)c1O`, the GI50 in assay [1] was > 100 µM (inactive); in assay [16] it was > 100 µM (inactive); in assay [2], > 100 µM (inactive); in assay [18], > 100 µM (inactive); in assay [3], 76.2 µM (inactive); in [4], > 100 µM (inactive). For the same compound, the GI50 in [5] was > 100 µM (inactive); in assay [6], > 100 µM (inactive); in [7] it was 76.7 µM (inactive); in [8], > 100 µM (inactive); in assay [10] it was 38.7 µM (inactive); in [17], > 100 µM (inactive). Further, the GI50 was 9.59 µM (inactive) in assay [11], > 100 µM (inactive) in [12], > 100 µM (inactive) in assay [15] and > 100 µM (inactive) in assay [19].
For the compound `CCCC(=O)OCC1OC(n2cc(F)c(=O)[nH]c2=O)C(F)C1OC(=O)CCC` (stereo not drawn), the GI50 in assay [1] is 69.7 µM (inactive); in [2], 43.5 µM (inactive); in assay [18], 6.38 µM (inactive); in assay [3] it was 7.48 µM (inactive); in assay [4] it was 54.7 µM (inactive); in assay [5] it was 51.5 µM (inactive). In addition, the GI50 is 7.64 µM (inactive) in assay [6]; > 100 µM (inactive) in assay [7]; 85.7 µM (inactive) in [8]; > 100 µM (inactive) in [10]; 96.6 µM (inactive) in [17]; 10.9 µM (inactive) in assay [11]. The GI50 is > 100 µM (inactive) in [12]; 25.6 µM (inactive) in [13]; 1.63 µM (inactive) in assay [14]; 49.3 µM (inactive) in assay [15]; 36.6 µM (inactive) in assay [19].
`O=C1c2cccnc2S(=O)(=O)N1c1ccc(Br)cc1`: the GI50 in assay [1] is > 100 µM (inactive); in assay [16], 75.7 µM (inactive); in assay [2] it was 95.1 µM (inactive); in assay [18] it was > 100 µM (inactive); in assay [3] it was > 100 µM (inactive); in assay [4] it was > 100 µM (inactive). Moreover, the GI50 in [5] was > 100 µM (inactive); in assay [6], 43 µM (inactive); in assay [7], > 100 µM (inactive); in assay [8], > 100 µM (inactive); in assay [10], > 100 µM (inactive); in [17], > 100 µM (inactive). Further, the GI50 was > 100 µM (inactive) in assay [11], > 100 µM (inactive) in assay [12], > 100 µM (inactive) in assay [15] and 73.6 µM (inactive) in assay [19].
Take `Cc1ccc(S(=O)(=O)NC(CN)C(=O)O)cc1` (stereo not drawn): the GI50 in assay [1], in [16], in [2], in assay [18], in assay [3] and in assay [4] was > 100 µM (inactive) in each case. In addition, the GI50 in assay [5] was > 100 µM (inactive); in assay [7] it was 36.8 µM (inactive); in assay [8], > 100 µM (inactive); in assay [10], > 100 µM (inactive); in assay [17], > 100 µM (inactive); in assay [11], > 100 µM (inactive). For the same compound, the GI50 in assay [12], in assay [13], in assay [14], in assay [15] and in [19] was > 100 µM (inactive) each time.
In the case of `C1=N\CCN2CCN(CC/N=C\c3ccc(cc3)OCc3cccc(n3)COc3ccc/1cc3)CC2`, the GI50 in assay [1] was > 50 µM (inactive); in assay [16], > 50 µM (inactive); in [2] it was > 50 µM (inactive); in assay [18], > 50 µM (inactive); in assay [3], > 50 µM (inactive); in assay [4], 11.6 µM (inactive). For the same compound, the GI50 in assay [5], in [6], in assay [7], in [8], in assay [10] and in assay [17] was > 50 µM (inactive) throughout. The GI50 is > 50 µM (inactive) in assay [11]; > 50 µM (inactive) in [12]; > 50 µM (inactive) in assay [13]; > 50 µM (inactive) in assay [14]; > 50 µM (inactive) in assay [15]; 26.9 µM (inactive) in assay [19].
As to `CC(C)CC1N=C(OCc2ccccc2)OC1=O` (stereo not drawn), the GI50 in assay [1], in [16], in assay [2], in assay [18], in assay [3] and in [4] was > 100 µM (inactive) throughout. Besides, the GI50 in [5], in [6], in assay [7], in [8], in assay [10] and in [17] was > 100 µM (inactive) throughout. Besides, the GI50 in assay [11], in assay [12], in [13], in [14], in assay [15] and in assay [19] was > 100 µM (inactive) throughout.
